Assay results taken from patent US9932314B2, “Pyrazole compounds and their use as T-type calcium channel blockers” (IDORSIA PHARMACEUTICALS LTD, priority 2015, dated 2018).

Target: T1, voltage-dependent T-type calcium channel subunit alpha-1G (Cav3.2) (Homo sapiens, UniProt O95180)
T1 construct: expressed in transfected cells; host or cells: HEK293
Test: FLIPR calcium flux assay, HEK293 cells recombinantly expressing Cav3.2
Format: cell-based
Details: Cav3.2-channel, Fluo-4-AM, 3 min incubation, stimulation with 10 mM CaCl2
Procedure: In Vitro Methods—Measurement of Calcium Channel Flux by Means of FLIPR Assays.
HEK293 cells recombinantly expressing either voltage-dependent T-type calcium channel subunit […] (Cav3.2) or voltage-dependent L-type calcium channel subunit alpha-1C (Cav1.2) are assayed for calcium flux using the calcium indicator dye Fluo-4-AM (Molecular Devices) and FLIPR technology (Fluorometric Imaging Plate Reader, Molecular Devices) (Xie X, Van Deusen A L, Vitko I, Babu D A, Davies L A, Huynh N, Cheng H, Yang N, Barrett P Q, Perez-Reyes E. Validation of high throughput screening assays against three subtypes of Ca(v)3 T-type channels using molecular and pharmacologic approaches. Assay and Drug Development Technologies 2007, 5(2), 191-203). The HEK293 cells recombinantly expressing Cav3.2 are maintained in DMEM growth medium (Life Technologies) supplemented with 10% Fetal Bovine Serum (FBS), 100 U/ml penicilin (Life Technologies), 100 μg/ml streptomycin (Life Technologies) and 1 mg/ml G418 (Life Technologies). HEK293 cells recombinantly expressing Cav1.2 are maintained in DMEM growth medium (Life technologies) supplemented with 10% FBS, 0.1 mg/ml G418 (Life Technologies), 0.1 mg/ml hygromycin (Life Technologies) and 40 ug/ml zeocin (Life Technologies).
The seeded plates are incubated overnight at 37° C.
The cells are then washed three times with assay buffer (HBSS 1×; 0.375 g/L NaHCO3; 20 mM Hepes; 1% FBS; pH 7.4) and allowed to rest in 50 μl of wash buffer for 30 minutes.
Stock solutions of test compounds are prepared to a concentration of 10 mM in DMSO. For the Cav3.2 assay, serial dilutions of the compounds are prepared in TEAC buffer (100 mM tetraethylammonium chloride; 20 mM Hepes; 2.5 mM CaCl2; 5 mM KCl; 1 mM MgCl2; 1% FBS; pH 7.2), for the Cav1.2 assay serial dilutions are prepared in assay buffer. […] The compounds are incubated with the cells for 3 minutes and Ca2+ entry is stimulated by adding either CaCl2 to a final concentration of 10 mM (Cav3.2 assay) or by adding KCl to a final concentration of 20 mM (Cav1.2 assay). The kinetics of fluorescence increase are recorded for every well and the area under the fluorescence trace for every compound concentration is used to generate inhibition curves using non-linear regression sigmoidal concentration-response curve analysis with in-house software.

T1 sequence (O95180 whole entry): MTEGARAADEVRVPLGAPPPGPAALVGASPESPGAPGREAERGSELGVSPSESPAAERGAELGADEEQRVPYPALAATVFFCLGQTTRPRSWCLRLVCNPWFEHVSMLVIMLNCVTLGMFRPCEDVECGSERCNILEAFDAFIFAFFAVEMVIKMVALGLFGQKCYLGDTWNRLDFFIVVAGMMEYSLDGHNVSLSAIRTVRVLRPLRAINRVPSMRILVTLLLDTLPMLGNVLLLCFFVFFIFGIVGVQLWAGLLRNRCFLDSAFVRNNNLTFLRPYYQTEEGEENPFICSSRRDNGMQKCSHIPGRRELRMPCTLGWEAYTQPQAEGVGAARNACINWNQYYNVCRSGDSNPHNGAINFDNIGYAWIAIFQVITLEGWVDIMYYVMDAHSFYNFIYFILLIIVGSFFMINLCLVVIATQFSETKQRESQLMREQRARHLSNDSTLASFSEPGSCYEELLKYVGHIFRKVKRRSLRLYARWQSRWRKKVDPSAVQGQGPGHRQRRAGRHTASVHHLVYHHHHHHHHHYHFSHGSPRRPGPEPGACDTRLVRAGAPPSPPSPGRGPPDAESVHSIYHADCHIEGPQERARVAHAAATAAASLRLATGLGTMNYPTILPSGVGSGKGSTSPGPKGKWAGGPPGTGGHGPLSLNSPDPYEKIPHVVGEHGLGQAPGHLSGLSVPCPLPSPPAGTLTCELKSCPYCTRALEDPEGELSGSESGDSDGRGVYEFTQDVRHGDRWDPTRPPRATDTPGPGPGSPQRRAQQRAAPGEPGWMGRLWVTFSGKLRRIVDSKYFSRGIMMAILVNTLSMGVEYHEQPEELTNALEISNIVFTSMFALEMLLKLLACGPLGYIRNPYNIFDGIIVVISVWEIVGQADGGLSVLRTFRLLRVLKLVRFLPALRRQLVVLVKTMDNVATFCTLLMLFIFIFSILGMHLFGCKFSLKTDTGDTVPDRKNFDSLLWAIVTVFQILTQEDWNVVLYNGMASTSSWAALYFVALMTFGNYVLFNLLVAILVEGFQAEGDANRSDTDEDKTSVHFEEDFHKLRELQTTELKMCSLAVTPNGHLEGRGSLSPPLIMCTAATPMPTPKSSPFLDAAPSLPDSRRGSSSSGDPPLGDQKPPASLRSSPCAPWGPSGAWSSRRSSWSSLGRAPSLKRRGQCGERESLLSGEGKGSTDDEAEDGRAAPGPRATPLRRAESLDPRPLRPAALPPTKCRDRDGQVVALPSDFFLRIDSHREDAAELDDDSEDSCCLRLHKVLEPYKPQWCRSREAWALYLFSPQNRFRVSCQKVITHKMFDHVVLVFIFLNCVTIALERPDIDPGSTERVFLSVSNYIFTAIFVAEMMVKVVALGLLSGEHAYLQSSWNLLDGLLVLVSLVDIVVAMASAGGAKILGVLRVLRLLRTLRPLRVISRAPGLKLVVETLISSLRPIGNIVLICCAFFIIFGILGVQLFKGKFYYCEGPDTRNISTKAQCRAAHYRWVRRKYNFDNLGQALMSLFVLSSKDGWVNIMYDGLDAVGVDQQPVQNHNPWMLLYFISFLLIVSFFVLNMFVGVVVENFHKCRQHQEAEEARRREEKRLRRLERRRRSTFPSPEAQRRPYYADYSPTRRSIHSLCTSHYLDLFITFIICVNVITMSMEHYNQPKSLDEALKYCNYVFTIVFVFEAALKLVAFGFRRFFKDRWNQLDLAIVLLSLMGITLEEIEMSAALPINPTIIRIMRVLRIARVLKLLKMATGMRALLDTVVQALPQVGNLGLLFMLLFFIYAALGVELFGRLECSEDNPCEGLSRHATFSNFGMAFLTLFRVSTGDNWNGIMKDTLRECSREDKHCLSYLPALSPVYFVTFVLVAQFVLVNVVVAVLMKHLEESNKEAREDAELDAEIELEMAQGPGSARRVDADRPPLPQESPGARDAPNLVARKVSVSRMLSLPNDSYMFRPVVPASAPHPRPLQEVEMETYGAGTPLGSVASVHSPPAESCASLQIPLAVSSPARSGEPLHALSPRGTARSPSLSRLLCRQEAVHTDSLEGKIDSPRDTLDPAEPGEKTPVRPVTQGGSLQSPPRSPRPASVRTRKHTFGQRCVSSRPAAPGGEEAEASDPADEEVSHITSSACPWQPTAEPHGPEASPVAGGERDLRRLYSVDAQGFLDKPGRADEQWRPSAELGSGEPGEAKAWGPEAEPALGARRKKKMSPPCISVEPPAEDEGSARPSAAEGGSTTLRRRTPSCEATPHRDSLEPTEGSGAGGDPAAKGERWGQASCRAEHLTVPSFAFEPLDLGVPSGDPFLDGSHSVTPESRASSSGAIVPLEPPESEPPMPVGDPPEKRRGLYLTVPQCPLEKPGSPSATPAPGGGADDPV

Structure (SMILES) | IC50 [nM]
N#Cc1ccc(Cn2ccc(NC(=O)Cc3ccc(N4CC[C@H](F)C4)cc3)n2)nc1 [Example 90, N-[1-(5-Cyano-pyridin-2-ylmethyl)-1H-pyrazol-3-yl]-2-[4-((S)-3-fluoro-pyrrolidin-1-yl)-phenyl]-acetamide] | 75
N#Cc1cc(Cn2ccc(NC(=O)Cc3ccc(C(F)(F)F)cc3)n2)ccc1F [Example 342, N-[1-(3-Cyano-4-fluoro-benzyl)-1H-pyrazol-3-yl]-2-(4-trifluoromethyl-phenyl)-acetamide] | 40
N#Cc1ccc(Cn2ccc(NC(=O)Cc3ccc(N4CC(F)(F)C4)cc3)n2)cc1 [Example 50, N-[1-(4-Cyano-benzyl)-1H-pyrazol-3-yl]-2-[4-(3,3-difluoro-azetidin-1-yl)-phenyl]-acetamide] | 11
Cc1ccc(Cn2ccc(NC(=O)Cc3ccc(C(C)C)cc3)n2)cc1 [Example 9, 2-(4-Isopropyl-phenyl)-N-[1-(4-methyl-benzyl)-1H-pyrazol-3-yl]-acetamide] | 12
Cc1nn(C)c2ccc(CC(=O)Nc3ccn(Cc4cc(F)c(C#N)c(F)c4)n3)cc12 [Example 348, N-[1-(4-Cyano-3,5-difluoro-benzyl)-1H-pyrazol-3-yl]-2-(1,3-dimethyl-1H-indazol-5-yl)-acetamide] | 29
N#Cc1ccc(Cn2ccc(NC(=O)Cc3ccc(N4CC[C@@H](F)C4)nc3)n2)cc1 [Example 140, N-[1-(4-Cyano-benzyl)-1H-pyrazol-3-yl]-2-[6-((R)-3-fluoro-pyrrolidin-1-yl)-pyridin-3-yl]-acetamide] | 176
CC(C)c1ccc(CC(=O)Nc2ccn(Cc3ccc(C#N)c(C(F)F)n3)n2)cc1 [Example 385, N-[1-(5-Cyano-6-difluoromethyl-pyridin-2-ylmethyl)-1H-pyrazol-3-yl]-2-(4-isopropyl-phenyl)-acetamide] | 44
O=C(Cc1ccc(C2CC2)nc1)Nc1ccn(Cc2ccc(Cl)c(F)c2)n1 [Example 193, N-[1-(4-Chloro-3-fluoro-benzyl)-1H-pyrazol-3-yl]-2-(6-cyclopropyl-pyridin-3-yl)-acetamide] | 78
CO[C@@H](C)c1ccc(CC(=O)Nc2ccn(Cc3ccc(F)c(F)c3)n2)cc1 (single isomer, unassigned) [Example 233] | 8.1
N#Cc1ccc(Cn2ccc(NC(=O)Cc3ccc(N4CCC4)nc3)n2)cc1 [Example 111, 2-(6-Azetidin-1-yl-pyridin-3-yl)-N-[1-(4-cyano-benzyl)-1H-pyrazol-3-yl]-acetamide] | 1330
N#Cc1ccc(Cn2ccc(NC(=O)Cc3ccc(OC4CC(F)(F)C4)cc3)n2)cc1F [Example 261, N-[1-(4-Cyano-3-fluoro-benzyl)-1H-pyrazol-3-yl]-2-[4-(3,3-difluoro-cyclobutoxy)-phenyl]-acetamide] | 15
CC(C)c1ccc(CC(=O)Nc2ccn(Cc3ccc(F)c(C#N)n3)n2)cc1 [Example 210, N-[1-(6-Cyano-5-fluoro-pyridin-2-ylmethyl)-1H-pyrazol-3-yl]-2-(4-isopropyl-phenyl)-acetamide] | 8
Cn1ccc2ccc(CC(=O)Nc3ccn(Cc4ccc(C#N)c(F)c4)n3)cc21 [Example 293, N-[1-(4-Cyano-3-fluoro-benzyl)-1H-pyrazol-3-yl]-2-(1-methyl-1H-indol-6-yl)-acetamide] | 6.6
CCN(CC)c1ccc(CC(=O)Nc2ccn(Cc3ccc(C#N)cn3)n2)cn1 [Example 123, N-[1-(5-Cyano-pyridin-2-ylmethyl)-1H-pyrazol-3-yl]-2-(6-diethylamino-pyridin-3-yl)-acetamide] | 1270
O=C(Cc1ccc(N2CC(F)(F)C2)cc1)Nc1ccn(Cc2ccc(F)c(F)c2)n1 [Example 52, 2-[4-(3,3-Difluoro-azetidin-1-yl)-phenyl]-N-[1-(3,4-difluoro-benzyl)-1H-pyrazol-3-yl]-acetamide] | 2.6
Cn1ncc2ccc(CC(=O)Nc3ccn(Cc4ccc(C#N)c(F)c4)n3)cc21 [Example 291, N-[1-(4-Cyano-3-fluoro-benzyl)-1H-pyrazol-3-yl]-2-(1-methyl-1H-indazol-6-yl)-acetamide] | 80

Structure (SMILES) | IC50 [nM]
O=C(Cc1ccc(N2CC(F)(F)C2)cc1)Nc1ccn(Cc2ccc(F)cc2)n1 [Example 49, 2-[4-(3,3-Difluoro-azetidin-1-yl)-phenyl]-N-[1-(4-fluoro-benzyl)-H-pyrazol-3-yl]-acetamide] | 9.2
CC1(c2ccc(CC(=O)Nc3ccn(Cc4ccc(C#N)cn4)n3)cc2)COC1 [Example 318, N-[1-(5-Cyano-pyridin-2-ylmethyl)-1H-pyrazol-3-yl]-2-[4-(3-methyl-oxetan-3-yl)-phenyl]-acetamide] | 378
CC(C)c1ccc(CC(=O)Nc2ccn(Cc3cc(Cl)c(C#N)cn3)n2)cc1 [Example 157, N-[1-(4-Chloro-5-cyano-pyridin-2-ylmethyl)-1H-pyrazol-3-yl]-2-(4-isopropyl-phenyl)-acetamide] | 34
Cc1cn(C)c2ncc(CC(=O)Nc3ccn(Cc4ccc(C#N)cn4)n3)cc12 [Example 322, N-[1-(5-Cyano-pyridin-2-ylmethyl)-1H-pyrazol-3-yl]-2-(1,3-dimethyl-1H-pyrrolo[2,3-b]pyridin-5-yl)-acetamide] | 856
COc1ccc(Cn2ccc(NC(=O)Cc3ccc(N4CC(F)C4)nc3)n2)cc1 [Example 163, 2-[6-(3-Fluoro-azetidin-1-yl)-pyridin-3-yl]-N-[1-(4-methoxy-benzyl)-1H-pyrazol-3-yl]-acetamide] | 345
N#Cc1cc(Cn2ccc(NC(=O)Cc3ccc(OCC4CC(F)(F)C4)cc3)n2)ccc1F [Example 313, N-[1-(3-Cyano-4-fluoro-benzyl)-1H-pyrazol-3-yl]-2-[4-(3,3-difluoro-cyclobutylmethoxy)-phenyl]-acetamide] | 45
O=C(Cc1ccc2[nH]c(=O)oc2c1)Nc1ccn(Cc2ccc(F)c(F)c2)n1 [Example 218, N-[1-(3,4-Difluoro-benzyl)-1H-pyrazol-3-yl]-2-(2-oxo-2,3-dihydro-benzooxazol-6-yl)-acetamide] | 79
N#Cc1ccc(Cn2ccc(NC(=O)Cc3ccc(C4CC4)cc3)n2)nc1 [Example 78, N-[1-(5-Cyano-pyridin-2-ylmethyl)-1H-pyrazol-3-yl]-2-(4-cyclopropyl-phenyl)-acetamide] | 275
CC(C)c1ccc(CC(=O)Nc2ccn(Cc3ccc(C#N)cn3)n2)cc1 [Example 71, N-[1-(5-Cyano-pyridin-2-ylmethyl)-1H-pyrazol-3-yl]-2-(4-isopropyl-phenyl)-acetamide] | 60
CCc1nc(Cn2ccc(NC(=O)Cc3ccc(C(C)C)cc3)n2)ccc1C#N [Example 115, N-[1-(5-Cyano-6-ethyl-pyridin-2-ylmethyl)-1H-pyrazol-3-yl]-2-(4-isopropyl-phenyl)-acetamide] | 57
Cn1ncc2ccc(CC(=O)Nc3ccn(Cc4ccc(F)c(C#N)c4)n3)cc21 [Example 308, N-[1-(3-Cyano-4-fluoro-benzyl)-1H-pyrazol-3-yl]-2-(1-methyl-1H-indazol-6-yl)-acetamide] | 263
Cc1cc(CC(=O)Nc2ccn(Cc3ccc(F)c(C#N)c3)n2)ccc1OCC(F)(F)F [Example 343, N-[1-(3-Cyano-4-fluoro-benzyl)-1H-pyrazol-3-yl]-2-[3-methyl-4-(2,2,2-trifluoro-ethoxy)-phenyl]-acetamide] | 4.5
O=C(Cc1ccc(N2CC[C@@H](F)C2)cc1)Nc1ccn(Cc2ccc(F)c(F)c2)n1 [Example 68, N-[1-(3,4-Difluoro-benzyl)-1H-pyrazol-3-yl]-2-[4-((R)-3-fluoro-pyrrolidin-1-yl)-phenyl]-acetamide] | 4.8
N#Cc1c(F)cc(Cn2ccc(NC(=O)Cc3ccc(N4CCCC4)nc3)n2)cc1F [Example 351, N-[1-(4-Cyano-3,5-difluoro-benzyl)-1H-pyrazol-3-yl]-2-(6-pyrrolidin-1-yl-pyridin-3-yl)-acetamide] | 65
Cc1ccc(Cn2ccc(NC(=O)Cc3ccc(C4(C(F)(F)F)CC4)cc3)n2)nc1C#N [Example 372, N-[1-(6-Cyano-5-methyl-pyridin-2-ylmethyl)-1H-pyrazol-3-yl]-2-[4-(1-trifluoromethyl-cyclopropyl)-phenyl]-acetamide] | 38
COc1ccc(Cn2ccc(NC(=O)Cc3ccc(N(C)C)cc3)n2)cc1C(F)(F)F [Example 29, 2-(4-Dimethylamino-phenyl)-N-[1-(4-methoxy-3-trifluoromethyl-benzyl)-1H-pyrazol-3-yl]-acetamide] | 25
